# Laboratory results from patent US10889573B2, “Anthelmintic quinoline-3-carboxamide derivatives” (Bayer Animal Health GMBH, priority 2016, dated 2021).
# Columns and labels:
# [1] = tested on: Dirofilaria immitis third-stage larvae; assay: In vitro assay 4: Dirofilaria immitis (DIROIM L4), motility; conditions: 72 h, read-out: EC50 (reduction of motility)
# [2] = tested on: Cooperia curticei; conditions: Cooperia curticei, 120 h, read-out: activity (larval mortality)
# Description: In Vitro Assay 6: Cooperia curticei (COOPCU L3)
# Solvent: dimethyl sulfoxide
# Approximately 40 nematode larvae (Cooperia curticei) are transferred into a test tube containing the compound solution.
# After 5 days percentage of larval mortality is recorded. 100% efficacy means all larvae are killed; 0% efficacy means no larvae are killed.
# [3] = tested on: Dirofilaria immitis microfilariae; assay: In vitro assay 3: Dirofilaria immitis microfilariae (DIROIM L1), motility; conditions: 72 h, read-out: EC50 (reduction of motility), 72 h incubation
# [4] = tested on: Nippostrongylus brasiliensis; assay: In vitro assay 2: Nippostrongylus brasiliensis (NIPOBR), acetylcholine esterase readout; conditions: read-out: activity (reduction of AChE compared to negative control); for inhibition at 1 µg/mL: 1 μg/ml; for inhibition at 10 µg/mL: 10 μg/ml
# Description: In Vitro Assay 2: Nippostrongylus brasiliensis (NIPOBR)
# Adult Nippostrongylus brasiliensis were washed with saline buffer containing 100 U/ml penicillin, 0.1 mg/ml streptomycin and 2.5 μg/ml amphotericin B. Test compounds were dissolved in DMSO and worms were incubated in medium in a final concentration of 10 μg/ml (10 ppm) respectively 1 μg/ml (1 ppm). An aliquot of the medium was used to determine the acetylcholine esterase activity in comparison to a negative control. The principle of measuring acetylcholine esterase as readout for anthelmintic activity was described in Rapson et al (1986) and Rapson et al (1987).
# [5] = molecular target: C. elegans Slo-1a (Caenorhabditis elegans, UniProt Q95V25); conditions: pE50 (negative decadic logarithm of EC50), CHO cells expressing C. elegans Slo-1a, voltage sensitive dye
# C. elegans Slo-1a, sequence (Q95V25 whole entry): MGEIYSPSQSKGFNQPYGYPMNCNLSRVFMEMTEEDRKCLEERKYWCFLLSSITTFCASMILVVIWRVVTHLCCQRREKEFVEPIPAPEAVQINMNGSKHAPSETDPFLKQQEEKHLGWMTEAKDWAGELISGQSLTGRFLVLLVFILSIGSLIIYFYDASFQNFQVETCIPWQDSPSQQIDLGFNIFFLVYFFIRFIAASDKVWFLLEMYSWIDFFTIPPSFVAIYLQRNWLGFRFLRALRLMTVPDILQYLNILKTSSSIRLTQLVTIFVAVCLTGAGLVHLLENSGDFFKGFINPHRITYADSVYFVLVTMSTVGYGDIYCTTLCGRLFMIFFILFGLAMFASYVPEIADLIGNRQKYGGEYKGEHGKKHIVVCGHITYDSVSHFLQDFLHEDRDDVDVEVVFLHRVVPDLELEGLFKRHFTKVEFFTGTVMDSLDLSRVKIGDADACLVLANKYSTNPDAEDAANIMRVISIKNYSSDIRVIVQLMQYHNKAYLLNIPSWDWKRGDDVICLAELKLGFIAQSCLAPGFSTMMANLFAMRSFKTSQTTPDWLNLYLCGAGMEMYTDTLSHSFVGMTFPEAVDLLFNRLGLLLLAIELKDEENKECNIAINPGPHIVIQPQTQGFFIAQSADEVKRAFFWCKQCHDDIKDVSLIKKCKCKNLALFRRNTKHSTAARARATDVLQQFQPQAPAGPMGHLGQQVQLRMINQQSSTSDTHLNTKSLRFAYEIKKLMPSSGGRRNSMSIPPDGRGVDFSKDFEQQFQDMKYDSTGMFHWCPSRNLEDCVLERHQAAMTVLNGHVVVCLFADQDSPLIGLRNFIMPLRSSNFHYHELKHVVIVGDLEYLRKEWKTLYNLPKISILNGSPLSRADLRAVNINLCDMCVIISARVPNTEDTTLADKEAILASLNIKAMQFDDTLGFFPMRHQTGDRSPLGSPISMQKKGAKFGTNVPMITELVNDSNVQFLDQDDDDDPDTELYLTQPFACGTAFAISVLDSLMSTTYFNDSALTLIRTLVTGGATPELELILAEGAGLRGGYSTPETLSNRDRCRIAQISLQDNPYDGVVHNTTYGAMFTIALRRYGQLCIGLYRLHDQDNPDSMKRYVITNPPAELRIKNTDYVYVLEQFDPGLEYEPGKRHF
# Description: In Vitro Assay 1: C. elegans Slo-1a—Action at a Recombinant C. elegans Cell Line
# Cells were cultured at 37° C. and 5% CO2 in MEMalpha with Gutamax I (Invitrogen, Nr.: 32571), supplemented with 10% (v/v) heat inactivated fetal bovine serum (Invitrogen, Nr.: 10500), G418 (1 mg/ml, Invitrogen, Nr.: 10131). Cells were detached using Accutase (Sigma, Nr.: A6964).
# Membrane Potential Measurements
# Laboratory compound testing was performed on 384-well microtiter plates (MTPs, Greiner, Nr.: 781092). 8000 cells/well were plated onto 384-well MTPs and cultured for 20 to 24 hours at 37° C. and 5% CO2. After removal of the cell culture medium, the cells were washed once with tyrode (150 mM NaCl, 0.3 mM KCl, 2 mM CaCl2, 1 mM MgCl2, 0.8 mM NaH2PO4, 5 mM Glucose, 28 mM Hepes, pH 7.4) and then loaded with the voltage sensitive dye of the Membrane Potential Assay Kit diluted in tyrode for 1 h at room temperature.
# After starting the measurement of fluorescence using a FLIPR Tetra (Molecular Devices, Exc. 510-545 nm, Emm. 565-625 nm), test compounds were added followed by the addition of KCl tyrode (final assay concentration: 70 mM KCl, 2 mM CaCl2, 1 mM MgCl2, 0.8 mM NaH2PO4, 5 mM Glucose, 28 mM Hepes, pH 7.4, including the voltage sensitive dye). The measurement was completed after 7 minutes.
# The data were evaluated by using the ActivityBase XLfit software (IDBS) for curve fitting and calculation of the half-maximal effective concentration (EC50) and are reported as negative decadic logarithm (pE50).
# [6] = tested on: Haemonchus contortus; conditions: 120 h, read-out: activity (larval mortality)
# Description: In Vitro Assay 7: Haemonchus contortus (HAEMCO L3)
# Solvent: dimethyl sulfoxide
# Approximately 40 larvae of the red stomach worm (Haemonchus contortus) are transferred into a test tube containing compound solution.
# After 5 days the percentage of larval mortality is recorded. 100% efficacy means all larvae are killed, 0% efficacy means no larvae are killed.
SMILES,EC50 [1] [mg/L],mortality at 4 ppm [2] [%],mortality at 20 ppm [2] [%],EC50 [3] [mg/L],inhibition at 1 µg/mL [4] [%],EC50 [5] [nM],mortality at 4 ppm [6] [%],mortality at 20 ppm [6] [%],inhibition at 10 µg/mL [4] [%]
O=C(N[C@H]1CCOc2ccccc21)c1cnc2c(-c3cccc(Cl)c3Cl)cccc2c1N1CCC(O)C1 (mixture of isomers) [Example 194],< 0.1,100,100,< 0.1,> 80,< 3.16,90,100,–
O=C(N[C@H]1CCOc2ccccc21)c1cnc2c(-c3cccc(F)c3Cl)cccc2c1N1CCC(O)C1 (mixture of isomers) [Example 258],< 0.1,80,–,< 0.1,–,3.16 to 31.6,–,90,–
O=C(N[C@H]1CCOc2ccccc21)c1cnc2c(-c3cccc(Cl)c3)cccc2c1N1CCC(O)C1 (mixture of isomers) [Example 260],< 0.1,80,90,< 0.1,> 80,< 3.16,80,90,–
O=C(N[C@H]1CCOc2ccccc21)c1cnc2c(-c3cc(Cl)cc(C(F)(F)F)c3)cccc2c1N1CCC(O)C1 (mixture of isomers) [Example 271],< 0.1,90,90,< 0.1,> 80,< 3.16,90,90,–
Cc1cc(Cl)cc(-c2cccc3c(N4CCC(O)C4)c(C(=O)N[C@H]4CCOc5ccccc54)cnc23)c1F (mixture of isomers) [Example 272],< 0.1,–,80,< 0.1,> 80,< 3.16,90,90,–
CN(C)c1c(C(=O)N[C@H]2CCOc3ccccc32)cnc2c(-c3cc(F)c(F)c(F)c3)cccc12 [Example 47],< 0.1,80,80,< 0.1,> 80,< 3.16,90,100,> 80
CN(C)c1c(C(=O)N[C@H]2CCOc3ccccc32)cnc2c(-c3cccc(C(F)(F)F)c3F)cccc12 [Example 50],< 0.1,80,90,< 0.1,> 80,< 3.16,90,100,> 80
O=C(N[C@H]1CCOc2ccccc21)c1cnc2c(-c3cc(Cl)ccc3F)c(F)ccc2c1N1CCOCC1 [Example 170],< 0.1,100,100,< 0.1,> 80,< 3.16,100,100,–
CN(C)c1c(C(=O)N[C@H]2CCOc3ccccc32)cnc2c(-c3ccc(F)cc3Cl)c(F)ccc12 [Example 172],< 0.1,100,100,< 0.1,> 80,< 3.16,80,100,–
O=C(N[C@H]1CCOc2ccccc21)c1cnc2c(-c3cccc4c3OCC4)cccc2c1N1CCOCC1 [Example 204],< 0.1,–,100,< 0.1,> 80,3.16 to 31.6,–,90,–
O=C(N[C@H]1CCOc2ccccc21)c1cnc2c(-c3cc(Cl)ccc3F)cccc2c1N1CCOCC1 [Example 221],< 0.1,90,100,< 0.1,> 80,< 3.16,90,100,–
O=C(N[C@H]1CCOc2ccccc21)c1cnc2c(-c3cccc(Cl)c3F)cccc2c1N1CCOCC1 [Example 226],< 0.1,100,100,< 0.1,> 80,< 3.16,90,100,–
O=C(N[C@H]1CCOc2ccccc21)c1cnc2c(-c3cc(Cl)cc(C(F)(F)F)c3)cccc2c1N1CCOCC1 [Example 235],< 0.1,90,100,< 0.1,> 80,< 3.16,90,100,–
COC(=O)[C@H]1CCN(c2c(C(=O)N[C@H]3CCOc4ccccc43)cnc3c(-c4cc(Cl)cc(Cl)c4)cccc23)C1 [Example 281],< 0.1,80,90,< 0.1,> 80,< 3.16,80,80,–
CN(C)c1c(C(=O)N[C@H]2CCOc3ccccc32)cnc2c(-c3cccc(Cl)c3Cl)c(C(F)(F)F)ccc12 [Example 315],< 0.1,–,80,< 0.1,> 80,< 3.16,–,–,–
O=C(N[C@H]1CCOc2ccccc21)c1cnc2c(-c3cccc(OC(F)(F)F)c3)cccc2c1N1CCOCC1 [Example 322],< 0.1,–,80,< 0.1,> 80,< 3.16,–,–,–
CN(C)c1c(C(=O)N[C@H]2CCOc3ccccc32)cnc2c(-c3cccc(Cl)c3Cl)c(F)ccc12 [Example 330],< 0.1,90,90,< 0.1,> 80,< 3.16,100,100,–
O=C(N[C@H]1CCOc2ccccc21)c1cnc2c(-c3cc(Cl)cc(Cl)c3)cccc2c1N1CC[C@@H](C(=O)O)C1 [Example 332],< 0.1,100,100,< 0.1,> 80,< 3.16,100,100,–
COCCOc1c(C(=O)N[C@H]2CCOc3ccccc32)cnc2c(-c3cc(Cl)cc(Cl)c3)cccc12 [Example 338],< 0.1,90,90,< 0.1,> 80,< 3.16,–,–,> 80
"CC(C)c1c(C(=O)N[C@H]2CCOc3ccccc32)cnc2c(-c3cc(Cl)cc(Cl)c3)cccc12 [Example 359, 8-(3,5-dichlorophenyl)-N-[(4S)-3,4-dihydro-2H-chromen-4-yl]-4-isopropyl-quinoline-3-carboxamide]",< 0.1,100,100,< 0.1,> 80,< 3.16,100,100,–
O=C(N[C@H]1CCOc2ccccc21)c1cnc2c(-c3cc(Cl)cc(Cl)c3)cccc2c1N1CC(F)C1 [Example 392],< 0.1,–,–,< 0.1,> 80,3.16 to 31.6,80,80,–
CC(C)c1c(C(=O)N[C@H]2CCOc3ccccc32)cnc2c(-c3cccc(C(F)(F)F)c3F)cccc12 [Example 408],< 0.1,100,100,< 0.1,> 80,< 3.16,90,90,–
CC(C)c1c(C(=O)N[C@H]2CCOc3ccccc32)cnc2c(-c3cccc(C(F)(F)F)c3)cccc12 [Example 411],< 0.1,100,100,< 0.1,> 80,< 3.16,100,100,–
Cc1ccc(F)c(-c2cccc3c(N(C)C)c(C(=O)N[C@H]4CCOc5ccccc54)cnc23)c1 [Example 437],< 0.1,80,–,< 0.1,> 80,< 3.16,–,–,–
"O=C(N[C@H]1CCOc2ccccc21)c1cnc2c(-c3cc(Cl)cc(Cl)c3)cccc2c1C1CCOCC1 [Example 539, 8-(3,5-dichlorophenyl)-N-[(4S)-3,4-dihydro-2H-chromen-4-yl]-4-(tetrahydro-2H-pyran-4-yl)quinoline-3-carboxamide]",< 0.1,100,100,< 0.1,–,< 3.16,100,100,–
Cc1cc(-c2cccc3c(N4CCOCC4)c(C(=O)N[C@H]4CCOc5ccccc54)cnc23)cc(C(C)(C)C)c1 [Example 587],< 0.1,–,80,< 0.1,> 80,< 3.16,–,–,–
